“And” between values parts separate entries of the source, which are not always exact repeats. Equal values may be shown once.
How the values were obtained:
Format in all cases: physicochemical
[1] = Absolute fluorescence quantum yield using an integrating sphere; conditions: dichloromethane; for ΦF (fluorescence quantum yield): absolute value
Experimental: Polymethine dyes disclosed herein are characterized with respect to their photophysics including absorption, emission, extinction coefficient, quantum yields, and fluorescence lifetime. All quantum yields values obtained are absolute quantum yields values measured using an integrating sphere. Photostabilities are evaluated by sample irradiation with high powered LEDs. Additionally, solvatochromism, solvent compatibility, and stability are assessed.

[2] = Stability of Flav7 in acetonitrile in the presence of methanol, ethanol or water (absorption over time, LCMS); conditions: for change of absorption over time: over 4 hours
Experimental: Concerned about the structure's susceptibility to nucleophilic attack, the stability of Flav7 in the presence of methanol, ethanol, and water was investigated. 3 was dissolved in acetonitrile, and 1-50% water, ethanol, or methanol was introduced. Changes in absorption spectra over time were monitored. […] Further evidence that 3 is stable to water include UV/Vis monitoring of the dose-dependent addition of water to 3 in acetonitrile followed by water removal.
(§1) Finally, the photoluminescence of Flav7 was compared to the prominent SWIR polymethine dyes, IR-26 and IR-1061. IR-26 has been widely-employed as a standard for this region, while IR-1061 has recently been the active component of nanomaterials for […] in vivo imaging. Despite numerous studies which rely on these dyes, the reported ΦF for IR-26 have been inconsistent, and the ΦF of IR-1061 has yet to be thoroughly characterized. Consequently, to establish that Flav7 is more emissive than existing SWIR polymethine dyes, each dye's emission was directly compared using a SWIR camera. We prepared solutions of 3, IR-26, and IR-1061 in dichloromethane with identical absorbance at 808 nm, excited with a diffuse 808 nm laser, and imaged their emission over 1000-1500 nm.

[3] = Absorbance spectra of the dyes in DCM (UV-Visible/NIR spectrophotometer)
From the text: (§2) The absorbance spectra in FIG. 2 and FIG. 5 were obtained in DCM on a JASCO V-770 UV-Visible/[…] spectrophotometer with a 2000 nm/min or 4000 nm/min scan rate. Plotted are the baseline corrected and normalized data. The emission spectra in FIG. 2 were taken in DCM on either a Horiba Instruments PTI QuantaMaster Series fluorometer (6), a Fluoromax-3 spectrofluorometer (1, 3-5), or home-built InGaAs array detector (Princeton Instruments). For 6 the following parameters were used: ex. 610 nm, emission collected from 620-900 nm, slits 5 nm, step size 1 nm, integration time 1 s. Plotted is the DCM corrected, baseline corrected, normalized data. For 1, and 3-5, the following parameters were used: slits 5 nm, step size 1 nm, integration time, 0.25 s. Excitation values and emission collection were as follows: 1 (ex. 460, collection 470-800 nm), 5 (ex. 675 nm, collection 685-950 nm), 4 (ex. 840 nm, emission 850-1100 nm), 3 (ex. 730 nm, emission 950-1400). Plotted are the baseline corrected, normalized data. The emission spectra in FIG. 5 were taken in dichloromethane on a Horiba Instruments QuantaMaster Series fluorometer with excitation slits: 15 nm, emission slits: 30 nm, step size: 1 nm, integration time: 0.1 s and excitation wavelengths as indicated.

[4] = Photobleaching under continuous-wave irradiation at 532 nm; conditions: dichloromethane
Experimental: Photostabilities of the Flay series were measured under continuous-wave irradiation (532 nm, 0.53 fluence).

[5] = Comparative emission imaging with a SWIR InGaAs camera, 808 nm excitation
From the text: as §1
Spatially dispersed 808 nm illumination was used to image 1 ml samples in 2.5 mL cuvettes of the SWIR dyes alongside a DCM blank. Each dye was compared at the same position to ensure consistent camera illumination. SWIR images were collected on an InGaAs camera (Princeton Instruments, NIRvana 640) with a 1000 nm long-pass filter. The camera was cooled to −80° C., the analog to digital (AD) conversion rate set to 2 MHz, the gain set to high, and different exposure times used to achieve sufficient signal and/or frame rates. All images were background- and blemish-corrected within the LightField imaging software. […]

[6] = Emission spectra of the dyes in DCM; conditions: dichloromethane, dyes 1, 3-6 and reference dyes
From the text: as §2

[7] = Solvatochromism of Flav7
From the text: This family of flavylium dyes has photophysical qualities that are complementary to commonly used cyanine dyes. However, the premier dye in the series is the Flav7 (3) as few emissive polymethine dyes exist in this region. Thus, we thoroughly investigated its stability. First, we explored the solvatochromism of Flav7. […] However, in polar solvents, spectral broadening and accentuation of a high-energy shoulder were observed. This behavior is consistent with SWIR polymethine dyes that experience ground state symmetry breaking due to stabilization of an asymmetric electronic structure.

For `CN(C)c1ccc2c(c1)OC(c1ccccc1)=C/C2=C\C=C1/CCCC(/C=C/c2cc(-c3ccccc3)[o+]c3cc(N(C)C)ccc23)=C1Cl.[O-][Cl+3]([O-])([O-])[O-]` [Dye 3, 4-((E)-2-((E)-2-chloro-3-(2-((E)-7-(dimethylamino)-2-phenyl-4H-chromen-4-ylidene)ethylidene)cyclohex-1-en-1-yl)vinyl)-7-(dimethylamino)-2-phenylchromenylium perchlorate], the “QE, εΦF (quantum efficiency)” value [1] was 1200 M⁻¹ cm⁻¹, the “ΦF (fluorescence quantum yield)” value [1] was 0.53±0.03% and 0.53% and the “ΦF (fluorescence quantum yield)” value ([1]; listed as Flav7) was 0.53% and 0.53±0.3%. The “QE, εΦF (quantum efficiency)” value ([1]; listed as Flav7) was 1,200 M^−1cm^−1, the “degradation by LCMS over time” value ([2]; 0.1 mg/mL in acetonitrile with 10% water) was “no appreciable degradation” and the “change of λmax,abs at 1013 nm” value ([2]; acetonitrile with 1% methanol) was “rapid loss”. The “change of absorption over time” value ([2]; acetonitrile with 10% ethanol) was “slight loss”, the “change of absorption over time” value ([2]; acetonitrile with 10% water) was “no significant change” and the “absorbance at 1013 nm after water addition and water removal” value ([2]; acetonitrile, dose-dependent water addition followed by water removal, UV/Vis) was “restored upon water removal”. For the same compound, the “absorption red shift past IR-27” value [3] was roughly 40 nm, the “absorption (DCM) λmax” value ([3]; dichloromethane, in example paragraphs the longest-wavelength absorbance peak) was 1026 nm and the “relative rate, krel (photobleaching)” value ([4]; 532 nm irradiation) was 40. ± 6. The “raw rate, k (photobleaching)” value ([4]; continuous-wave irradiation 532 nm, 0.53 fluence) was 28. ± 3. s^−1 × 10^−3, the “ε at 532 nm” value [4] was 1.4 ± 0.2 M^−1cm^−1 × 10^4 and the “brightness relative to IR-26” value [5] was 13 times. The “emission intensity compared with the other SWIR dyes” value ([5]; dichloromethane, identical absorbance at 808 nm, emission 1000-1500 nm) was “brightest of the three dyes”, the “emission (DCM) λmax” value [6] was 1045 nm and the “emission (DCM) λmax” value ([6]; listed as Flav7) was 1061 nm and 1045 nm. The “variation of λmax,abs between solvents” value ([7]; dichloromethane, dimethyl sulfoxide, acetonitrile, tetrahydrofuran, acetone) was “minimal variation” and the behaviour in methanol ([7]; methanol as solvent) was “immediate color change”.

Reference: patent US11292778B2, “Heterocyclyl polymethine IR chromophores” (The Regents of the University of California, priority 2017, dated 2022)
